# Source: US10793561B2, “1,8-naphthyridinone compounds and uses thereof” (NUVATION BIO INC., priority 2017, dated 2020)
# pIC50: −log10 of the molar value.
# Legend:
# [1] = target: T1, adenosine A2A receptor (Homo sapiens (Human), UniProt P29274); assay: Radioligand binding competition assay, adenosine A2A receptor; details: for A2A radioligand binding competition assay % residual binding @ 100 nM: 100 nM compound; for A2A radioligand binding competition assay % residual binding @ 300 nM: 300 nM compound; for A2A radioligand binding competition assay % residual binding @ 1000 nM: 1000 nM compound; for A2A radioligand binding competition assay % residual binding @ 3000 nM / inhibition at 3 µM: 3000 nM compound; for inhibition at 3 µM: read-out: A2a binding % inh @ 3000 nM
# T1 sequence (P29274 whole entry): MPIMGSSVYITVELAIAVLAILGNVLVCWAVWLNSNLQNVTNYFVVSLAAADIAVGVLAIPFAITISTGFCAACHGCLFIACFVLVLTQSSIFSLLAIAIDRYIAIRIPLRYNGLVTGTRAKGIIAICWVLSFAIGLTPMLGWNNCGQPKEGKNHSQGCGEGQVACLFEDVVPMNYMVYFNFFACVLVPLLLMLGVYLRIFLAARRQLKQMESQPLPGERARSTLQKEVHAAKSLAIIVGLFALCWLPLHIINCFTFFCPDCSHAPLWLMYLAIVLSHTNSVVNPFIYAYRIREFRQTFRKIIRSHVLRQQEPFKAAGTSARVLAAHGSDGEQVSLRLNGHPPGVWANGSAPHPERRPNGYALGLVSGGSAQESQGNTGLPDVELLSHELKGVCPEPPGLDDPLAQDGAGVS
# Method: (§1) Binding of selected compounds to the adenosine A1, A2A, A2B, and A3 receptors was tested using a binding competition assay.
# (§2) The general protocol for the radioligand binding competition assay was as follows. Competition binding was performed in duplicate in the wells of a 96 well plate (Master Block, Greiner, 786201) containing binding buffer (optimized for each receptor), membrane extracts (amount of protein/well optimized for each receptor), radiotracer (final concentration optimized for each receptor), and test compound. Nonspecific binding was determined by co-incubation with 200-fold excess of cold competitor. The samples were incubated in a final volume of 0.1 mL at 25° C. for 60 minutes and then filtered over filter plates. Filters were washed six times with 0.5 mL of ice-cold washing buffer (optimized for each receptor) and 50 μL of Microscint 20 (Packard) were added on each filter. The filter plates were sealed, incubated 15 min on an orbital shaker and scintillation counted with a TopCount for 30 sec/filter.
# For the adenosine A2A receptor radioligand binding assay, the following modifications were made to the general protocol. GF/C filters (Perkin Elmer, 6005174), presoaked in 0.01% Brij for 2 h at room temperature were used. Filters were washed six times with 0.5 mL of ice-cold washing buffer (50 mM Tris pH 7.4) and 50 μL of Microscint 20 (Packard) was added in each well. The plates were then incubated for 15 min on an orbital shaker and then counted with a TopCount™ for 1 min/well.
# Another radioligand binding assay was used to evaluate the binding affinity for the adenosine A2A receptor assay was performed in duplicate in the wells of a 384 plate. Assay buffer contained DPBS 500 mM, MgCl2 0.1 mM, and 1% DMSO. Membrane-bead suspension was prepared by mixing 25.98 μL of human adenosine A2A membrane preparation (Perkin Elmer, RBHA2AM400UA) at 33.4 pg/mL, 28 μL of ADA at 20 pg/mL, and 932 μL of SPA beads at 3.33 mg/mL) and incubated the mixture for 20 min at room temperature. Mixed 20 μL of radiotracer (^3H-SCH 58261) at 15 nM to each well containing test articles at various concentrations and centrifuge the plate at 1000 rpm for 1 minute. Added 30 μL of the membrane-bead suspension to each well. Sealed the plates and incubated for 1 hr at room temperature with vigorous mixing on a plate mixer. Plates were read on Microbeta^2 (Perkin Elmer, 2450-0010).
# (§3) CHO-K1-A3 cell membranes, 1.5 μg/well; a binding buffer comprising HEPES 25 mM pH 7.4, MgCl2 5 mM, CaCl2 1 mM, 0.5% BSA; a wash buffer comprising HEPES 25 mM pH 7.4, MgCl2 5 mM, CaCl2 1 mM; a Unifilter GF/C—treated for 2 h with 0.5% BS; and 0.4 nM of ^125I-AB-MECA as the tracer. The results of the binding assay are shown in Table B1-1 and are shown as percent residual binding at a given concentration. Percent of residual binding means binding of a compound in the presence of competitor normalized to the amount of binding in the absence of competitor. […] For example, compound 1 strongly bound to A2A (30% residual binding at a concentration of 100 nM), A1 (−3% residual binding at 300 nM) and A2B, (−9% residual binding at 300 nM) but weakly bound to A3 (96% residual binding at 300 nM).
# [2] = target: adenosine A1 receptor (Homo sapiens (Human), UniProt P30542); assay: Radioligand binding competition assay, adenosine A1 receptor (CHO-K1-A1 cell membranes); details: 300 nM compound
# adenosine A1 receptor, sequence (P30542 whole entry): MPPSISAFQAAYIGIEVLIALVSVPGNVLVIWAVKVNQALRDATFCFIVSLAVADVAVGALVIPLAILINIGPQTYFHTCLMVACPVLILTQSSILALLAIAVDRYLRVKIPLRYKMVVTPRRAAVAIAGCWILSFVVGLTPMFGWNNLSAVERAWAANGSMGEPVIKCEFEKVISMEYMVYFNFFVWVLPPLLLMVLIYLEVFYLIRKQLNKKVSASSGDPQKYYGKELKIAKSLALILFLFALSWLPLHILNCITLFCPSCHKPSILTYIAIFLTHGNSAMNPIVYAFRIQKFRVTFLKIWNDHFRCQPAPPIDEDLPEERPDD
# Method: as §1, §2
# For the adenosine A1 radioligand binding competition assay, a similar procedure was used except that the following reagents were used: CHO-K1-A1 cell membranes; binding buffer comprising HEPES 25 mM pH 7.4, MgCl2 5 mM, CaCl2 1 mM, NaCl 100 mM, saponin 10 µg/mL; wash buffer comprising HEPES 25 mM pH 7.4, MgCl2 5 mM, CaCl2 1 mM, NaCl 100 mM; Unifilter GF/B—treated for 2 h with 0.5% PEI was the filter; and 1.6 nM of ^3H-DPCPX was the tracer.
# as §3
# [3] = target: adenosine A2B receptor (Homo sapiens (Human), UniProt P29275); assay: Radioligand binding competition assay, adenosine A2B receptor (HEK-293-A2b cell membranes); details: 300 nM compound
# adenosine A2B receptor, sequence (P29275 whole entry): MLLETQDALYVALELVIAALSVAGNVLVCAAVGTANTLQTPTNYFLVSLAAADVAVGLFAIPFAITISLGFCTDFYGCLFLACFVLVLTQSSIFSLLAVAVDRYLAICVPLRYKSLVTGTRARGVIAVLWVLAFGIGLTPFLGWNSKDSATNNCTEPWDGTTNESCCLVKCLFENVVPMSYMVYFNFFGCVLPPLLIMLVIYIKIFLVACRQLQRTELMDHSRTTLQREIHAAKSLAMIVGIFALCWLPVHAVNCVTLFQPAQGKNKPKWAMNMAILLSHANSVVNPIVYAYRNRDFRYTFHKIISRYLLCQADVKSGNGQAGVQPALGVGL
# Method: as §1, §2
# Similarly, the following reagents were used for the adenosine A2B radioligand binding competition assay: HEK-293-A2b cell membranes, 20 μg/well, preincubated 30 min at RT with […] Adenosine Deaminase; a binding buffer comprising HEPES 10 mM pH7.4, EDTA 1 mM, 0.5% BSA; a wash buffer comprising HEPES 10 mM pH7.4, EDTA 1 mM; a Unifilter GF/C—treated for 2 h with 0.5% PEI; and 10 nM ^3H-DPCPX as the tracer.
# as §3
# [4] = target: adenosine A3 receptor (Homo sapiens (Human), UniProt P0DMS8); assay: Radioligand binding competition assay, adenosine A3 receptor (CHO-K1-A3 cell membranes); details: 300 nM compound
# adenosine A3 receptor, sequence (P0DMS8 whole entry): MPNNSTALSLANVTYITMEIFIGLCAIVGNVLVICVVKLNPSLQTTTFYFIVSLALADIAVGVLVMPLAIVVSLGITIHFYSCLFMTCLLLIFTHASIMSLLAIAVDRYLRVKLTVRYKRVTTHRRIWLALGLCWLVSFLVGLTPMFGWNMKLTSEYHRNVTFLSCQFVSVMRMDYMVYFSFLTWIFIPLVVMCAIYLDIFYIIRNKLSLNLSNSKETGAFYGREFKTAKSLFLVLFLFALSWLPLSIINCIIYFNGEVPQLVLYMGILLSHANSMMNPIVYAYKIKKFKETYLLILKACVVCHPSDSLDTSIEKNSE
# Method: as §1, §2
# For the adenosine A3 radioligand binding competition assay, the following reagents were used:
# as §3
# [5] = target: T1, adenosine A2A receptor; assay: cAMP assay in HEK-293 cells expressing human recombinant adenosine A2A receptor; assay type: cell-based; details: for inhibition at 0.1 µM / inhibition at 0.3 µM: HEK293; for inhibition at 0.1 µM: 100 nM compound, read-out: A2a cAMP % inh @ 100 nM; for inhibition at 0.3 µM: 300 nM compound, read-out: A2a cAMP % inh @ 300 nM
# Method: The functional activity of compounds was tested using one of the two assays to detect the present of cAMP. Activation of G-protein coupled receptors (such as A2A) results in activation of adenylcyclase which converts ATP into cAMP which is used as a downstream signaling molecule. Therefore, molecules which act as GPCR (or specifically A2A receptor) antagonists cause a decrease in intracellular cAMP concentration.
# Both assays used HEK-293 cells expressing human recombinant adenosine A2A receptor were grown prior to the test in media without antibiotic. Assay 1: The cells were detached by gentle flushing with PBS-EDTA (5 mM EDTA), recovered by centrifugation and suspended in assay buffer (KRH: 5 mM KCl, 1.25 mM MgSO4, 124 mM NaCl, 25 mM HEPES, 13.3 mM Glucose, 1.25 mM KH2PO4, 1.45 mM CaCl2, 0.5 g/L BSA, supplemented with Rolipram).
# 12 μL of cells were mixed with 6 μL of the test compound at increasing concentrations and then incubated for 10 min. Thereafter 6 μL of the reference agonist was added at a final concentration corresponding to the historical EC80. The plates were then incubated for 30 min at room temperature. After addition of the lysis buffer and 1 hour incubation, cAMP concentrations were estimated, according to the manufacturer specification, with the HTRF® kit.
# Assay 2: 100 nL of test articles at 100× of final concentration were transferred to assay plate by Echo. Cells were washed twice with 5 mL of PBS […]. After aspirating the PBS and adding 1.5 mL versine, cells were incubated at 37° C. for 2-5 min. After centrifugation, 4 mL of medium was added and adjusted cell density to 5,000 cells/well with stimulation buffer. 10 μL of cells were aliquoted to the assay plate, centrifuged at 1000 rpm for 1 minute, and incubated for 60 minutes at room temperature. 5 μL 4× Eu-cAMP tracer solution and 5 μL 4× Ulight™-anti-cAMP solution were added to assay plate, followed by centrifugation and 60-minute incubation at room temperature. Plates were read on EnVision.
smiles,measurement,setting,value
"O=c1ccc2cc(-c3ccc(O)c(Cl)c3)c(-c3ccccc3)nc2[nH]1 [1.1, 6-(3-chloro-4-hydroxy-phenyl)-7-phenyl-1H-1,8-naphthyridin-2-one]",A2A radioligand binding competition assay % residual binding @ 100 nM,[1],83%
same,A2A radioligand binding competition assay % residual binding @ 300 nM,[1],54%
same,Radioligand binding competition assay % residual binding @ 300 nM (A1),[2],1.6%
same,Radioligand binding competition assay % residual binding @ 300 nM (A2b),[3],17%
same,Radioligand binding competition assay % residual binding @ 300 nM (A3),[4],95%
same,pIC50,[5]; first cAMP table,7.21
"O=c1cc[nH]c2nc(-c3ccccc3)c(-c3ccc(O)c(Cl)c3)cc12 [1.2, 6-(3-chloro-4-hydroxy-phenyl)-7-phenyl-1H-1,8-naphthyridin-4-one]",A2A radioligand binding competition assay % residual binding @ 100 nM,[1],77%
same,A2A radioligand binding competition assay % residual binding @ 300 nM,[1],60%
same,Radioligand binding competition assay % residual binding @ 300 nM (A1),[2],0%
same,Radioligand binding competition assay % residual binding @ 300 nM (A2b),[3],0%
same,Radioligand binding competition assay % residual binding @ 300 nM (A3),[4],83%
same,pIC50,[5]; first cAMP table,7.66
"O=c1cc[nH]c2nc(-c3ccccc3)c(-c3ccc4ncccc4c3)cc12 [1.5, 7-phenyl-6-(quinolin-6-yl)-1,8-naphthyridin-4(1H)-one]",pIC50,[1],6.74
same,A2A radioligand binding competition assay % residual binding @ 100 nM,[1],74%
same,A2A radioligand binding competition assay % residual binding @ 300 nM,[1],38%
same,A2A radioligand binding competition assay % residual binding @ 1000 nM,[1],12%
same,A2A radioligand binding competition assay % residual binding @ 3000 nM,[1],22%
same,Radioligand binding competition assay % residual binding @ 300 nM (A1),[2],11%
same,Radioligand binding competition assay % residual binding @ 300 nM (A2b),[3],2%
same,Radioligand binding competition assay % residual binding @ 300 nM (A3),[4],104%
same,pIC50,[5]; first cAMP table,7.64
"O=c1cc[nH]c2nc(-c3ccccc3)c(-c3ccc4[nH]cnc4c3)cc12 [Compound No. 1.7, 6-(1H-benzo[d]imidazol-5-yl)-7-phenyl-1,8-naphthyridin-4(1H)-one]",A2A radioligand binding competition assay % residual binding @ 100 nM,[1],52%
same,A2A radioligand binding competition assay % residual binding @ 300 nM,[1],33%
same,A2A radioligand binding competition assay % residual binding @ 1000 nM,[1],21%
same,A2A radioligand binding competition assay % residual binding @ 3000 nM,[1],18%
same,Radioligand binding competition assay % residual binding @ 300 nM (A1),[2],7%
same,Radioligand binding competition assay % residual binding @ 300 nM (A2b),[3],0%
same,Radioligand binding competition assay % residual binding @ 300 nM (A3),[4],84%
same,inhibition at 0.1 µM,[5],81%
"Cn1cnc2cc(-c3cc4c(=O)cc[nH]c4nc3-c3ccccc3)ccc21 [Compound No. 1.22, 6-(1-methyl-1H-benzo[d]imidazol-5-yl)-7-phenyl-1,8-naphthyridin-4(1H)-one]",A2A radioligand binding competition assay % residual binding @ 3000 nM,[1],69/ND/ND/ND %
same,inhibition at 0.1 µM,[5],30%
"Cc1cc(-c2cc3c(=O)cc[nH]c3nc2-c2ccccc2)cc2cccnc12 [Compound No. 1.23, 6-(8-methylquinolin-6-yl)-7-phenyl-1,8-naphthyridin-4(1H)-one]",A2A radioligand binding competition assay % residual binding @ 3000 nM,[1],22/ND/ND/ND %
same,inhibition at 0.1 µM,[5],77%
"O=c1cc[nH]c2nc(-c3ccccc3)c(-c3ccc4ncsc4c3)cc12 [Compound No. 1.24, 6-(benzo[d]thiazol-6-yl)-7-phenyl-1,8-naphthyridin-4(1H)-one]",A2A radioligand binding competition assay % residual binding @ 3000 nM,[1],16/ND/ND/ND %
same,inhibition at 0.1 µM,[5],83%
"Cc1ccc(-c2nc3[nH]ccc(=O)c3cc2-c2ccc3ncccc3c2)o1 [Compound No. 1.25, 7-(5-methylfuran-2-yl)-6-(quinolin-6-yl)-1,8-naphthyridin-4(1H)-one]",A2A radioligand binding competition assay % residual binding @ 3000 nM,[1],0/ND/ND/ND %
same,pIC50,[5]; first cAMP table,7.73
"Cc1cc(-c2cc3ccc(=O)[nH]c3nc2-c2ccccc2)cc(C)n1 [Compound No. 1.33, 6-(2,6-dimethylpyridin-4-yl)-7-phenyl-1,8-naphthyridin-2(1H)-one]",inhibition at 3 µM,[1],30%
same,inhibition at 0.3 µM,[5],60%
"O=c1ccc2cc(-c3ccncc3)c(-c3ccccc3)nc2[nH]1 [Compound No. 1.34, 7-phenyl-6-(pyridin-4-yl)-1,8-naphthyridin-2(1H)-one]",inhibition at 3 µM,[1],30%
same,inhibition at 0.3 µM,[5],26%
"Cc1cc(Cl)cc(-c2cc3ccc(=O)[nH]c3nc2-c2ccccc2)c1 [Compound No. 1.35, 6-(3-chloro-5-methylphenyl)-7-phenyl-1,8-naphthyridin-2(1H)-one]",inhibition at 3 µM,[1],0%
same,inhibition at 0.3 µM,[5],12%
"Cc1ccc(-c2nc3[nH]ccc(=O)c3cc2-c2ccc3ncsc3c2)o1 [Compound No. 1.98, 6-(benzo[d]thiazol-6-yl)-7-(5-methylfuran-2-yl)-1,8-naphthyridin-4(1H)-one]",inhibition at 3 µM,[1],85%
same,pIC50,[5]; second cAMP table,7.76
"O=c1cc[nH]c2nc(-n3cccn3)c(-c3ccc4ncccc4c3)cc12 [Compound No. 1.100, 7-(1H-pyrazol-1-yl)-6-(quinolin-6-yl)-1,8-naphthyridin-4(1H)-one]",inhibition at 3 µM,[1],78%
same,pIC50,[5]; second cAMP table,5.49
O=c1cc[nH]c2nc(-c3ccccc3)c(-c3ccc4ncncc4c3)cc12 [Compound No. 1.101],inhibition at 3 µM,[1],72%
same,pIC50,[5]; second cAMP table,6.74
"O=c1cc[nH]c2nc(-c3ccccc3)c(-c3ccc4[nH]ncc4c3)cc12 [Compound No. 1.102, 6-(3a,7a-dihydro-1H-indazol-5-yl)-7-phenyl-1,8-naphthyridin-4(1H)-one]",inhibition at 3 µM,[1],77%
same,pIC50,[5]; second cAMP table,6.53
